Laboratory results as given in patent publication US20050277624A1, “Use of corticosteroids alone or in conjunction with nutritional therapy to reduce stress in animals” (priority 2004, published 2005).

What was measured:
[1] = Weight loss of calves during 10 h transport (Example 1); assay type: in vivo, crossbred calves (cattle); details: calves ~600 lb, dexamethasone i.m. 2 mg per 50 lb body weight
Excerpt: Forty head of crossbred calves, both steers and heifers, and weighing approximately 600 lb (272 kg) on average were used. The calves were raised at the Agriculture and Agri-Food Canada Lacombe Research Centre (Lacombe, Alberta, Canada) in accordance with standard operating procedures representative of the cattle industry. The calves were randomly divided into two treatment groups designated as control (n=20) and dexamethasone-treated (n=20) and kept on standard feed (cereal grain silage) and water rations prior to transport.
Weights of all animals were recorded pre- and post-transport, metabolic activity was assessed by infrared thermographic analyses (IRT) of the eye region, and a salivary swab collection made for cortisol measurement.
The animals were subsequently loaded onto a commercial transport and transported for 10 h prior to being off loaded at the Agriculture and Agri-Food Canada Kamloops Research Centre (Kamloops, British Columbia, Canada). On arrival, the calves were again weighed, infrared images captured and a salivary swab collected. The animals were held overnight in pens with ad libitum access to water and cereal grain silage, and were again monitored for weight, thermal changes and salivary cortisol the following morning.

[2] = Weight loss of calves during 8 h transport (Example 2); assay type: in vivo, crossbred calves (cattle); details: calves ~800 lb, dexamethasone i.m. 0.61 mg per 50 lb, NT 1 kg/animal 24 h prior
Excerpt: The study in Example 1 was repeated with the addition of a nutritional supplement treatment group. The calves were raised at the Agriculture and Agri-Food Canada Lacombe Research Centre (Lacombe, Alberta, Canada) in accordance with standard operating procedures representative of the cattle industry. The breed, sex and weight of the calves were similar to those used in Example 1. Crossbred calves weighing approximately 800 lb (363 kg) on average were used.
Twenty-four hours prior to transport, the calves were assigned to the nutritional supplement groups and were offered 1 kg/animal of nutritional supplement or a “receiver calf” preparation (Supplement 1(d) as described in U.S. Pat. Nos. 5,505,968 and 5,728,675 to Schaefer et al. with differences being the selection of flavoring, form of an extruded pellet, and carrier being alfalfa) along with their regular feed ration (cereal grain silage). All calves in all treatments were kept on normal feed and water rations prior to transport.
Weights of all animals were recorded pre- and post-transport and metabolic activity was assessed by infrared thermographic analyses of the eye region. […] The animals were then loaded onto a commercial transport carrier and transported for 8 h prior to being offloaded, re-weighed, re-scanned with infrared and re-sampled for cortisol. […]

[3] = system: calves; assay: Behavioural scans (lying and eating frequency) for three days following transport (Example 3); assay type: in vivo; details: three day average following transport
Excerpt: Corticosteroid treatment in conjunction with a nutritional supplement appears to enhance recovery from transport stress. The behavioral responses of animals were monitored following transport. Calves were allocated among five treatment groups as follows:
For all of the above groups, ten behavioural scans lasting one minute each were completed each day (pm) for three days following transport, thereby accumulating a total of 2,280 animal observations. Frequency measures of animals lying and eating were collected. It is well known to those skilled in the art that when animals are fatigued or morbid, they tend to lie down (Kilbour et al., 1984; Agri-Food Research Council Canadian Food Inspection Agency, 2001).

Structure (SMILES): C[C@@H]1C[C@H]2[C@@H]3CCC4=CC(=O)C=C[C@]4(C)[C@@]3(F)[C@@H](O)C[C@]2(C)[C@@]1(O)C(=O)CO [dexamethasone]
- weight loss during transport ([1]; control lost 5%): 3.2 % body weight
- weight loss during transport ([1]; control lost 13.8 kg): 8.7 kg
- weight loss during transport ([1]; control lost 30.5 lb, P<0.05): 19.2 lb
- weight loss during transport ([2]; control lost 21.5 kg): 17.6 kg
- weight loss during transport ([2]; control lost 47.36 lb, P<0.05): 38.87 lb
- Eating Frequency ([3]; control away 20%, control home 78%): 24%
- Lying Frequency ([3]; control away 97%, control home 23%): 0%
